{
  "source": "patent US20060281728A1",
  "about": "“3-Substituted beta-lactamyl vasopressin v1a antagonists” (priority 2003, published 2006)",
  "target": "human V1a receptor (Homo sapiens, UniProt P37288)",
  "sequence (P37288 whole entry)": "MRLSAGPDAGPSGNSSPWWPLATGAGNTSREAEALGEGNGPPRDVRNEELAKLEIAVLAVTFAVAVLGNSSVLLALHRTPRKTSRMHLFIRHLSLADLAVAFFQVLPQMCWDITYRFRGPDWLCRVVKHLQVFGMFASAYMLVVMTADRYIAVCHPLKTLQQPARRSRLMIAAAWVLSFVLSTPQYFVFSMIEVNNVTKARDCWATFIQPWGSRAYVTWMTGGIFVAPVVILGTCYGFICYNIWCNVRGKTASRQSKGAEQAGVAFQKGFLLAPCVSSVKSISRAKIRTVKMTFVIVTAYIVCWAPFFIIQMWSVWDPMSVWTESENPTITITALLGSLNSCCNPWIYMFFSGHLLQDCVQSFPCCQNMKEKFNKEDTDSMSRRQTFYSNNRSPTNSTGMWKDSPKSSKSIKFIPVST",
  "assay": "Human vasopressin V1a receptor binding assay",
  "conditions": "competitive binding against 1 nM 3H-AVP, hV1a cell line (CHO cells), 45 minutes at 37° C.",
  "description": "A cell line expressing the human V1a receptor in CHO cells (henceforth referred to as the hV1a cell line) was obtained from Dr. Michael Brownstein, NIMH, Bethesda, Md., USA. The hV1a cDNA sequence is described by Thibonnier et al., Journal of Biological Chemistry, 269:3304-3310 (1994), and the expression method was the same as described by Morel et al. (1992). The hV1a cell line was grown in alpha-MEM with 10% fetal bovine serum and 250 ug/ml G418 (Gibco, Grand Island, N.Y., USA). For competitive binding assay, hV1a cells were plated into 6-well culture plate at 1:10 dilution from a confluency flask, and maintained in culture for at least two days. Culture medium was then removed, cells were washed with 2 ml binding buffer (25 mM Hepes, 0.25% BSA, 1×DMEM, PH=7.0). To each well, 990 μl binding buffer containing 1 nM 3H-AVP was added, and followed by 10 μl series diluted Example compounds dissolved in DMSO. All incubations were in triplicate, and dose-inhibition curves consisted of total binding (DMSO) and 5 concentrations (0.1, 1.0, 10, 100, and 1000 nM) of test agents encompassing the IC50. 100 nM cold AVP (Sigma) was used to assess non-specific binding. […] Samples were counted in a liquid scintillation counter (Beckman LS3801). IC50 values were calculated by Prism Curve fitting software.",
  "data": [
    {"smiles": "C[C@@]1(N2C(=O)OC[C@@H]2c2ccccc2)C(=O)N([C@H](CC(=O)N2CCC(N3CCCCC3)CC2)C(=O)NCc2cccc(C(F)(F)F)c2)[C@@H]1/C=C/c1ccccc1", "note": "[Example 33, 4-(Piperidin-1-yl)-piperidin-1-yl 3(R)-[3(S)-(4(S)-phenyloxazolidin-2-on-3-yl)-3-methyl-4(R)-(styr-2-yl)azetidin-2-on-1-yl]-3-[(3-trifluoromethyl)phenylmethylaminocarbonyl]propanoic acid]", "values": [
      {"measurement": "IC50", "value": 5, "unit": "nM"}
    ]}
  ]
}
